Test results reported in US12252524B2, “GIP/GLP1 co-agonist compounds” (Eli Lilly and Company, priority 2018, dated 2025).
Numbered stars: 1 amine (or outer) side, 2 acyl side, 3 side chain; on linkers, the order of the positions; unused ones are H or OH. Square brackets hold non-standard residues; d marks the D form. Side chains are listed from the residue outwards. Peptide text beside a SMILES is read from it. * marks the point of attachment. C18 diacid = O=C(O)CCCCCCCCCCCCCCCCC(=O)*; αMePhe(2-F) = C[C@](N)(Cc1ccccc1F)C(=O)O; γGlu = O=C(O)[C@H](CCC(=O)[*:2])N[*:1]; αMeL = CC(C)C[C@](C)(N)C(=O)O; Orn = NCCC[C@H](N)C(=O)O; AEEA = NCCOCCOCC(=O)O; Aib = CC(C)(N)C(=O)O

Assays:
[1] = target: T1, gastric inhibitory peptide receptor (GIPR) (Homo sapiens, UniProt P48546); assay: cAMP pharmacological functional assay in presence of casein, hGIPR; assay type: cell-based; conditions: HEK293 cells expressing hGIPR, 0.1% Casein, geometric mean; read-out: hGIPR cAMP Rel EC50 nM (SEM, n)
T1 sequence (P48546 22-466): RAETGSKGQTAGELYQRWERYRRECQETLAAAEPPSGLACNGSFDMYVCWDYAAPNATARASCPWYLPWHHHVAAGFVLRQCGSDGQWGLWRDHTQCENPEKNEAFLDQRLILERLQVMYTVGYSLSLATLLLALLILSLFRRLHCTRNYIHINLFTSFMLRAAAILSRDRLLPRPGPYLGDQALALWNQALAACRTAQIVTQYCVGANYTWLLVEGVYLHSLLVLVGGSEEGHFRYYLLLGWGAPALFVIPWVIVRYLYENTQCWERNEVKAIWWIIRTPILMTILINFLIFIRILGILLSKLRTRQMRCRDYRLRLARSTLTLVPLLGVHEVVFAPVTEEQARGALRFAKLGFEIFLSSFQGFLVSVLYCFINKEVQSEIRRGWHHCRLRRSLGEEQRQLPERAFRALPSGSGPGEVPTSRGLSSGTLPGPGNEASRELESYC

[2] = target: human GLP-1 receptor (GLP-1R) (Homo sapiens, UniProt P43220); assay: cAMP pharmacological functional assay in presence of casein, hGLP-1R; assay type: cell-based; conditions: HEK293 cells expressing hGLP-1R, 0.1% Casein, geometric mean; read-out: hGLP1R cAMP Rel EC50 nM (SEM, n)
Chain of human GLP-1 receptor (GLP-1R) (P43220 24-463): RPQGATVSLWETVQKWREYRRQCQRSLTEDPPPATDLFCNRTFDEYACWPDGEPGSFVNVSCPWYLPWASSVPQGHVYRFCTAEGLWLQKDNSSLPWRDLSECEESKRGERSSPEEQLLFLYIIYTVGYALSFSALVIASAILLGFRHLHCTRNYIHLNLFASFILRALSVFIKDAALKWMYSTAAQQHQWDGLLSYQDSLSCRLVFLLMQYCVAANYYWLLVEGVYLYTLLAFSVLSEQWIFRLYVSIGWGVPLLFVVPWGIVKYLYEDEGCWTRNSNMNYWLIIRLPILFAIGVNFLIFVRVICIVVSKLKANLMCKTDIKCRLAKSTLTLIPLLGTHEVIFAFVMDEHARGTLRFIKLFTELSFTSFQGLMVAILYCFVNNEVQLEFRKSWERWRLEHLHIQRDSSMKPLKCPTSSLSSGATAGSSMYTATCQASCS

| SMILES | EC50 [1] | EC50 [2] |
| --- | --- | --- |
| CC[C@H](C)[C@H](NC(=O)[C@H](CC(C)C)NC(=O)[C@H](Cc1ccc(O)cc1)NC(=O)[C@H](CCC(=O)O)NC(=O)[C@@H](NC(=O)[C@H](Cc1ccccc1)NC(=O)[C@H](C)NC(=O)[C@@H]1CCCN1C(=O)[C@H](CCC(N)=O)NC(=O)[C@H](C)NC(=O)[C@H](CCCCNC(=O)COCCOCCNC(=O)COCCOCCNC(=O)CC[C@H](NC(=O)CCCCCCCCCCCCCCCCC(=O)O)C(=O)O)NC(=O)[C@H](CCCCN)NC(=O)[C@H](CC(=O)O)NC(=O)[C@H](CC(C)C)NC(=O)[C@H](CC(C)C)NC(=O)[C@@H](NC(=O)[C@H](CO)NC(=O)[C@H](Cc1ccc(O)cc1)NC(=O)[C@H](CC(=O)O)NC(=O)[C@H](CO)NC(=O)[C@@H](NC(=O)[C@H](Cc1ccccc1)NC(=O)[C@@H](NC(=O)CNC(=O)[C@H](CCC(=O)O)NC(=O)C(C)(C)NC(=O)[C@@H](N)Cc1ccc(O)cc1)[C@@H](C)O)[C@@H](C)O)[C@@H](C)CC)[C@@H](C)CC)C(=O)N[C@@H](CCC(=O)O)C(=O)NCC(=O)NCC(=O)N1CCC[C@H]1C(=O)N[C@@H](CO)C(=O)N[C@@H](CO)C(=O)NCC(N)=O [Example 274] (H-Y[Aib]EGTFTSDYSILLDKK([AEEA-AEEA-γGlu-C18 diacid])AQPAFIEYLIEGGPSSG-NH2) | > 30 nM | 14.5 nM |
| CC[C@H](C)[C@H](NC(=O)[C@H](CC(C)C)NC(=O)[C@H](Cc1ccc(O)cc1)NC(=O)[C@H](CCC(=O)O)NC(=O)[C@@H](NC(=O)[C@H](Cc1ccccc1)NC(=O)[C@H](C)NC(=O)[C@@H]1CCCN1C(=O)[C@H](CCC(N)=O)NC(=O)[C@H](C)NC(=O)[C@H](CCCCNC(=O)COCCOCCNC(=O)COCCOCCNC(=O)CC[C@H](NC(=O)CCCCCCCCCCCCCCCCC(=O)O)C(=O)O)NC(=O)[C@H](CCCCN)NC(=O)[C@H](CC(=O)O)NC(=O)[C@H](CC(C)C)NC(=O)[C@H](CC(C)C)NC(=O)[C@@H](NC(=O)[C@H](CO)NC(=O)[C@H](Cc1ccc(O)cc1)NC(=O)[C@H](CC(=O)O)NC(=O)[C@H](CO)NC(=O)[C@@H](NC(=O)[C@H](Cc1ccccc1)NC(=O)[C@@H](NC(=O)CNC(=O)[C@H](CCC(=O)O)NC(=O)C(C)(C)NC(=O)[C@@H](N)Cc1ccc(O)cc1)[C@@H](C)O)[C@@H](C)O)[C@@H](C)CC)[C@@H](C)CC)C(=O)N[C@@H](CCC(=O)O)C(=O)NCC(=O)NCC(N)=O [Example 275] (H-Y[Aib]EGTFTSDYSILLDKK([AEEA-AEEA-γGlu-C18 diacid])AQPAFIEYLIEGG-NH2) | > 30 nM | 14 nM |
| CC[C@H](C)[C@H](NC(=O)[C@H](CC(C)C)NC(=O)[C@H](Cc1ccc(O)cc1)NC(=O)[C@@H](CCC(=O)O)NC(=O)[C@@H](NC(=O)[C@H](Cc1ccccc1)NC(=O)[C@H](CCC(=O)O)NC(=O)C(C)(C)NC(=O)[C@H](CCC(N)=O)NC(=O)[C@H](C)NC(=O)[C@H](CCCCN)NC(=O)[C@H](CCC(=O)O)NC(=O)[C@H](CC(=O)O)NC(=O)[C@H](CC(C)C)NC(=O)[C@](C)(CC(C)C)NC(=O)[C@@H](NC(=O)[C@H](CO)NC(=O)[C@H](Cc1ccc(O)cc1)NC(=O)[C@H](CC(=O)O)NC(=O)[C@H](CO)NC(=O)[C@@H](NC(=O)[C@](C)(Cc1ccccc1F)NC(=O)[C@@H](NC(=O)CNC(=O)[C@H](CCC(=O)O)NC(=O)C(C)(C)NC(=O)[C@@H](N)Cc1ccc(O)cc1)[C@@H](C)O)[C@@H](C)O)[C@@H](C)CC)[C@@H](C)CC)C(=O)N[C@@H](CCC(=O)O)C(=O)NCC(=O)NCC(=O)N1CCC[C@H]1C(=O)N[C@@H](CO)C(=O)N[C@@H](CO)C(=O)NCC(=O)N[C@@H](C)C(=O)N1CCC[C@H]1C(=O)N1CCC[C@H]1C(=O)N1CCC[C@H]1C(=O)N[C@@H](CO)C(N)=O [Example 276] (H-Y[Aib]EGT[αMePhe(2-F)]TSDYSI[αMeL]LDEKAQ[Aib]EFI[dE]YLIEGGPSSGAPPPS-NH2) | 0.0757 nM | 0.108 nM |
| CC[C@H](C)[C@H](NC(=O)[C@H](CC(C)C)NC(=O)[C@H](Cc1ccc(O)cc1)NC(=O)[C@@H](CCC(=O)O)NC(=O)[C@@H](NC(=O)[C@H](Cc1ccccc1)NC(=O)[C@H](CCC(=O)O)NC(=O)C(C)(C)NC(=O)[C@H](CCC(N)=O)NC(=O)[C@H](C)NC(=O)[C@H](CCC(N)=O)NC(=O)[C@H](CCC(=O)O)NC(=O)[C@H](CC(=O)O)NC(=O)[C@H](CC(C)C)NC(=O)[C@](C)(CC(C)C)NC(=O)[C@@H](NC(=O)[C@H](CO)NC(=O)[C@H](Cc1ccc(O)cc1)NC(=O)[C@H](CC(=O)O)NC(=O)[C@H](CO)NC(=O)[C@@H](NC(=O)[C@](C)(Cc1ccccc1F)NC(=O)[C@@H](NC(=O)CNC(=O)[C@H](CCC(=O)O)NC(=O)C(C)(C)NC(=O)[C@@H](N)Cc1ccc(O)cc1)[C@@H](C)O)[C@@H](C)O)[C@@H](C)CC)[C@@H](C)CC)C(=O)N[C@@H](CCC(=O)O)C(=O)NCC(=O)NCC(=O)N1CCC[C@H]1C(=O)N[C@@H](CO)C(=O)N[C@@H](CO)C(=O)NCC(=O)N[C@@H](C)C(=O)N1CCC[C@H]1C(=O)N1CCC[C@H]1C(=O)N1CCC[C@H]1C(=O)N[C@@H](CO)C(N)=O [Example 277] (H-Y[Aib]EGT[αMePhe(2-F)]TSDYSI[αMeL]LDEQAQ[Aib]EFI[dE]YLIEGGPSSGAPPPS-NH2; N-terminus assumed) | 0.0554 nM | 0.133 nM |
| CC[C@H](C)[C@H](NC(=O)[C@H](CC(C)C)NC(=O)[C@H](Cc1ccc(O)cc1)NC(=O)[C@@H](CCC(=O)O)NC(=O)[C@@H](NC(=O)[C@H](Cc1ccccc1)NC(=O)[C@H](CCC(=O)O)NC(=O)C(C)(C)NC(=O)[C@H](CCC(N)=O)NC(=O)[C@H](C)NC(=O)[C@H](CCCCN)NC(=O)[C@H](CCC(=O)O)NC(=O)[C@H](CC(=O)O)NC(=O)[C@H](CC(C)C)NC(=O)[C@](C)(CC(C)C)NC(=O)[C@@H](NC(=O)[C@H](CO)NC(=O)[C@H](Cc1ccc(O)cc1)NC(=O)[C@H](CC(=O)O)NC(=O)[C@H](CO)NC(=O)[C@@H](NC(=O)[C@](C)(Cc1ccccc1F)NC(=O)[C@@H](NC(=O)CNC(=O)[C@H](CCC(=O)O)NC(=O)C(C)(C)NC(=O)[C@@H](N)Cc1ccc(O)cc1)[C@@H](C)O)[C@@H](C)O)[C@@H](C)CC)[C@@H](C)CC)C(=O)N[C@@H](CCC(=O)O)C(=O)NCC(=O)NCC(=O)N1CCC[C@H]1C(=O)N[C@@H](CO)C(=O)N[C@@H](CO)C(=O)NCC(=O)N[C@@H](C)C(=O)N1CCC[C@H]1C(=O)N1CCC[C@H]1C(=O)N1CCC[C@H]1C(=O)N[C@@H](CO)C(=O)N[C@@H](CS)C(N)=O [Example 278] (H-Y[Aib]EGT[αMePhe(2-F)]TSDYSI[αMeL]LDEKAQ[Aib]EFI[dE]YLIEGGPSSGAPPPSC-NH2; N-terminus assumed) | 0.293 nM | 0.123 nM |
| CC[C@H](C)[C@H](NC(=O)[C@H](CC(C)C)NC(=O)[C@H](Cc1ccc(O)cc1)NC(=O)[C@@H](CCC(=O)O)NC(=O)[C@@H](NC(=O)[C@H](Cc1ccccc1)NC(=O)[C@H](CCC(=O)O)NC(=O)C(C)(C)NC(=O)[C@H](CCC(N)=O)NC(=O)[C@H](C)NC(=O)[C@H](CCC(N)=O)NC(=O)[C@H](CCC(=O)O)NC(=O)[C@H](CC(=O)O)NC(=O)[C@H](CC(C)C)NC(=O)[C@](C)(CC(C)C)NC(=O)[C@@H](NC(=O)[C@H](CO)NC(=O)[C@H](Cc1ccc(O)cc1)NC(=O)[C@H](CC(=O)O)NC(=O)[C@H](CO)NC(=O)[C@@H](NC(=O)[C@](C)(Cc1ccccc1F)NC(=O)[C@@H](NC(=O)CNC(=O)[C@H](CCC(=O)O)NC(=O)C(C)(C)NC(=O)[C@@H](N)Cc1ccc(O)cc1)[C@@H](C)O)[C@@H](C)O)[C@@H](C)CC)[C@@H](C)CC)C(=O)N[C@@H](CCC(=O)O)C(=O)NCC(=O)NCC(=O)N1CCC[C@H]1C(=O)N[C@@H](CO)C(=O)N[C@@H](CO)C(=O)NCC(=O)N[C@@H](C)C(=O)N1CCC[C@H]1C(=O)N1CCC[C@H]1C(=O)N1CCC[C@H]1C(=O)N[C@@H](CO)C(=O)N[C@@H](CS)C(N)=O [Example 279] (H-Y[Aib]EGT[αMePhe(2-F)]TSDYSI[αMeL]LDEQAQ[Aib]EFI[dE]YLIEGGPSSGAPPPSC-NH2) | 0.564 nM | 0.11 nM |
| CC[C@H](C)[C@H](NC(=O)[C@H](CC(C)C)NC(=O)[C@H](Cc1ccc(O)cc1)NC(=O)[C@@H](CCC(=O)O)NC(=O)[C@@H](NC(=O)[C@H](Cc1ccccc1)NC(=O)[C@H](CCC(=O)O)NC(=O)C(C)(C)NC(=O)[C@H](CCC(N)=O)NC(=O)[C@H](C)NC(=O)[C@H](CCCCN)NC(=O)[C@H](CCCN)NC(=O)[C@H](CC(=O)O)NC(=O)[C@H](CC(C)C)NC(=O)[C@](C)(CC(C)C)NC(=O)[C@@H](NC(=O)[C@H](CO)NC(=O)[C@H](Cc1ccc(O)cc1)NC(=O)[C@H](CC(=O)O)NC(=O)[C@H](CO)NC(=O)[C@@H](NC(=O)[C@](C)(Cc1ccccc1F)NC(=O)[C@@H](NC(=O)CNC(=O)[C@H](CCC(=O)O)NC(=O)C(C)(C)NC(=O)[C@@H](N)Cc1ccc(O)cc1)[C@@H](C)O)[C@@H](C)O)[C@@H](C)CC)[C@@H](C)CC)C(=O)N[C@@H](CCC(=O)O)C(=O)NCC(=O)NCC(=O)N1CCC[C@H]1C(=O)N[C@@H](CO)C(=O)N[C@@H](CO)C(=O)NCC(=O)N[C@@H](C)C(=O)N1CCC[C@H]1C(=O)N1CCC[C@H]1C(=O)N1CCC[C@H]1C(=O)N[C@@H](CO)C(N)=O [Example 280] (H-Y[Aib]EGT[αMePhe(2-F)]TSDYSI[αMeL]LD[Orn]KAQ[Aib]EFI[dE]YLIEGGPSSGAPPPS-NH2) | 0.204 nM | 0.0767 nM |
